Laboratory results taken from paper PMC4410974 (Clinical cancer research : an official journal of the …, 2012).

Assays:
[1] = Tumor response by RECIST 1.0; assay type: in vivo, human
Adverse events = assay type: in vivo, human

CO[C@H]1C[C@@H]2CC[C@@H](C)[C@@](O)(O2)C(=O)C(=O)N2CCCC[C@H]2C(=O)O[C@H]([C@H](C)C[C@@H]2CC[C@@H](O)[C@H](OC)C2)CC(=O)[C@H](C)/C=C(\C)[C@@H](O)[C@@H](OC)C(=O)[C@H](C)C[C@H](C)/C=C/C=C/C=C/1C [Sirolimus]
16: Stable disease, number of subjects ([1]; per study)
One partial response: Partial response ([1]; collective studies, patient with epithelioid hemangioendothelioma with hepatic metastases)
1(1): Infection (adverse event) (Adverse events; Sirolimus Alone 20mg) | Infection, grade 3 or 4 (Adverse events; Sirolimus Alone 20mg) | Anorexia (adverse event) (Adverse events; Sirolimus Alone 30mg) | Anorexia, grade 3 or 4 (Adverse events; Sirolimus Alone 30mg) | Infection (adverse event) (Adverse events; Sirolimus Alone 30mg) | Infection, grade 3 or 4 (Adverse events; Sirolimus Alone 30mg) | Infection (adverse event) (Adverse events; Sirolimus Alone 30mg (24h)) | Infection, grade 3 or 4 (Adverse events; Sirolimus Alone 30mg (24h))
4: Elevated Transaminases (adverse event) (Adverse events; Sirolimus Alone 20mg) | Fatigue (adverse event) (Adverse events; Sirolimus Alone 20mg) | Hyperlipidemia (adverse event) (Adverse events; Sirolimus Alone 20mg) | Lymphopenia (adverse event) (Adverse events; Sirolimus Alone 20mg) | Nausea (adverse event) (Adverse events; Sirolimus Alone 30mg) | Diarrhea (adverse event) (Adverse events; Sirolimus Alone 30mg (4h))
2: Fatigue (adverse event) (Adverse events; Sirolimus Alone 10mg) | Hyperlipidemia (adverse event) (Adverse events; Sirolimus Alone 10mg) | Lymphopenia, grade 3 or 4 (Adverse events; Sirolimus Alone 10mg) | Mucositis (adverse event) (Adverse events; Sirolimus Alone 10mg) | Vomiting (adverse event) (Adverse events; Sirolimus Alone 10mg) | Hypoxia (adverse event) (Adverse events; Sirolimus Alone 20mg) | Nausea (adverse event) (Adverse events; Sirolimus Alone 20mg) | Diarrhea (adverse event) (Adverse events; Sirolimus Alone 30mg) | Elevated Transaminases (adverse event) (Adverse events; Sirolimus Alone 30mg) | Fever (adverse event) (Adverse events; Sirolimus Alone 30mg) | Vomiting (adverse event) (Adverse events; Sirolimus Alone 30mg) | Leukopenia (adverse event) (Adverse events; Sirolimus Alone 30mg (4h)) | Nausea (adverse event) (Adverse events; Sirolimus Alone 30mg (4h)) | Vomiting (adverse event) (Adverse events; Sirolimus Alone 30mg (4h)) | Diarrhea (adverse event) (Adverse events; Sirolimus Alone 30mg (24h))
40%: Stable disease, percent of subjects ([1]; per study)
1: Altered taste (adverse event) (Adverse events; Sirolimus Alone 10mg) | Anorexia (adverse event) (Adverse events; Sirolimus Alone 10mg) | Diarrhea (adverse event) (Adverse events; Sirolimus Alone 10mg) | Elevated Transaminases (adverse event) (Adverse events; Sirolimus Alone 10mg) | Infection (adverse event) (Adverse events; Sirolimus Alone 10mg) | Mucocutaneous dryness (adverse event) (Adverse events; Sirolimus Alone 10mg) | Paresthesia (adverse event) (Adverse events; Sirolimus Alone 10mg) | Rash (adverse event) (Adverse events; Sirolimus Alone 10mg) | Altered taste (adverse event) (Adverse events; Sirolimus Alone 20mg) | Anorexia (adverse event) (Adverse events; Sirolimus Alone 20mg) | Decreased platelets (adverse event) (Adverse events; Sirolimus Alone 20mg) | Dyspnea (adverse event) (Adverse events; Sirolimus Alone 20mg) | Lymphopenia, grade 3 or 4 (Adverse events; Sirolimus Alone 20mg) | Mucositis (adverse event) (Adverse events; Sirolimus Alone 20mg) | Decreased platelets (adverse event) (Adverse events; Sirolimus Alone 30mg) | Fatigue (adverse event) (Adverse events; Sirolimus Alone 30mg) | Hyperlipidemia, grade 3 or 4 (Adverse events; Sirolimus Alone 30mg) | Hypertension (adverse event) (Adverse events; Sirolimus Alone 30mg) | Lymphopenia, grade 3 or 4 (Adverse events; Sirolimus Alone 30mg) | Mucocutaneous dryness (adverse event) (Adverse events; Sirolimus Alone 30mg) | Nausea, grade 3 or 4 (Adverse events; Sirolimus Alone 30mg) | Pneumonia (adverse event) (Adverse events; Sirolimus Alone 30mg) | Rash (adverse event) (Adverse events; Sirolimus Alone 30mg) | Decreased platelets (adverse event) (Adverse events; Sirolimus Alone 30mg (4h)) | Elevated Transaminases (adverse event) (Adverse events; Sirolimus Alone 30mg (4h)) | Fatigue (adverse event) (Adverse events; Sirolimus Alone 30mg (4h)) | Hyperglycemia (adverse event) (Adverse events; Sirolimus Alone 30mg (4h)) | Mucositis (adverse event) (Adverse events; Sirolimus Alone 30mg (24h)) | Nausea (adverse event) (Adverse events; Sirolimus Alone 30mg (24h)) | Rash (adverse event) (Adverse events; Sirolimus Alone 30mg (24h)) | Anorexia (adverse event) (Adverse events; Sirolimus Alone 45mg (24h)) | Diarrhea, grade 3 or 4 (Adverse events; Sirolimus Alone 45mg (24h)) | Hyperglycemia (adverse event) (Adverse events; Sirolimus Alone 45mg (24h)) | Mood Alteration (adverse event) (Adverse events; Sirolimus Alone 45mg (24h))
3: Anemia (adverse event) (Adverse events; Sirolimus Alone 10mg) | Lymphopenia (adverse event) (Adverse events; Sirolimus Alone 10mg) | Nausea (adverse event) (Adverse events; Sirolimus Alone 10mg) | Anemia (adverse event) (Adverse events; Sirolimus Alone 30mg) | Hyperlipidemia (adverse event) (Adverse events; Sirolimus Alone 30mg) | Lymphopenia (adverse event) (Adverse events; Sirolimus Alone 30mg) | Diarrhea (adverse event) (Adverse events; Sirolimus Alone 45mg (24h))
2(2): Pneumonia (adverse event) (Adverse events; Sirolimus Alone 20mg) | Pneumonia, grade 3 or 4 (Adverse events; Sirolimus Alone 20mg)
6: Hyperglycemia (adverse event) (Adverse events; Sirolimus Alone 20mg) | Hyperglycemia (adverse event) (Adverse events; Sirolimus Alone 30mg)
5: Anemia (adverse event) (Adverse events; Sirolimus Alone 20mg) | Diarrhea (adverse event) (Adverse events; Sirolimus Alone 20mg)
